Experimental data taken from ChEMBL document CHEMBL5352447, “Development of [1,2]oxazoloisoindoles tubulin polymerization inhibitors: Further chemical modifications and potential therapeutic effects against lymphomas” (Eur J Med Chem, 2022).

Legend:
[1] = test system: CCRF-CEM; assay: Antiproliferative activity against human CCRF-CEM cells assessed as cell growth inhibition incubated for 72 hrs by MTT assay; type: functional
[2] = test system: HL-60(TB); assay: Antiproliferative activity against human HL-60(TB) cells assessed as cell growth inhibition incubated for 72 hrs by MTT assay; type: functional
[3] = test system: MOLT-4; assay: Antiproliferative activity against human MOLT-4 cells assessed as cell growth inhibition incubated for 72 hrs by MTT assay; type: functional
[4] = test system: RPMI-8226; assay: Antiproliferative activity against human RPMI-8226 cells assessed as cell growth inhibition incubated for 72 hrs by MTT assay; type: functional
[5] = test system: SR; assay: Antiproliferative activity against human SR cells assessed as cell growth inhibition incubated for 72 hrs by MTT assay; type: functional
[6] = test system: A549; assay: Antiproliferative activity against human A549 cells assessed as cell growth inhibition incubated for 72 hrs by MTT assay; type: functional
[7] = test system: EKVX; assay: Antiproliferative activity against human EKVX cells assessed as cell growth inhibition incubated for 72 hrs by MTT assay; type: functional
[8] = test system: NCI-H226; assay: Antiproliferative activity against human NCI-H226 cells assessed as cell growth inhibition incubated for 72 hrs by MTT assay; type: functional
[9] = test system: NCI-H23; assay: Antiproliferative activity against human NCI-H23 cells assessed as cell growth inhibition incubated for 72 hrs by MTT assay; type: functional
[10] = test system: NCI-H322M; assay: Antiproliferative activity against human NCI-H322M cells assessed as cell growth inhibition incubated for 72 hrs by MTT assay; type: functional
[11] = test system: NCI-H522; assay: Antiproliferative activity against human NCI-H522 cells assessed as cell growth inhibition incubated for 72 hrs by MTT assay; type: functional
[12] = test system: HCT-116; assay: Antiproliferative activity against human HCT-116 cells assessed as cell growth inhibition incubated for 72 hrs by MTT assay; type: functional
[13] = test system: HT-29; assay: Antiproliferative activity against human HT-29 cells assessed as cell growth inhibition incubated for 72 hrs by MTT assay; type: functional
[14] = test system: KM12; assay: Antiproliferative activity against human KM12 cells assessed as cell growth inhibition incubated for 72 hrs by MTT assay; type: functional
[15] = test system: SW-620; assay: Antiproliferative activity against human SW620 cells assessed as cell growth inhibition incubated for 72 hrs by MTT assay; type: functional
[16] = test system: SF-268; assay: Antiproliferative activity against human SF-268 cells assessed as cell growth inhibition incubated for 72 hrs by MTT assay; type: functional
[17] = test system: SF-539; assay: Antiproliferative activity against human SF-539 cells assessed as cell growth inhibition incubated for 72 hrs by MTT assay; type: functional
[18] = test system: SNB-19; assay: Antiproliferative activity against human SNB-19 cells assessed as cell growth inhibition incubated for 72 hrs by MTT assay; type: functional
[19] = test system: SNB-75; assay: Antiproliferative activity against human SNB-75 cells assessed as cell growth inhibition incubated for 72 hrs by MTT assay; type: functional
[20] = test system: U-251; assay: Antiproliferative activity against human U-251 cells assessed as cell growth inhibition incubated for 72 hrs by MTT assay; type: functional
[21] = test system: M14; assay: Antiproliferative activity against human M14 cells assessed as cell growth inhibition incubated for 72 hrs by MTT assay; type: functional
[22] = test system: MDA-MB-435; assay: Antiproliferative activity against human MDA-MB-435 cells assessed as cell growth inhibition incubated for 72 hrs by MTT assay; type: functional
[23] = test system: SK-MEL-2; assay: Antiproliferative activity against human SK-MEL-2 cells assessed as cell growth inhibition incubated for 72 hrs by MTT assay; type: functional
[24] = test system: SK-MEL-28; assay: Antiproliferative activity against human SK-MEL-28 cells assessed as cell growth inhibition incubated for 72 hrs by MTT assay; type: functional
[25] = test system: UACC-257; assay: Antiproliferative activity against human UACC-257 cells assessed as cell growth inhibition incubated for 72 hrs by MTT assay; type: functional
[26] = test system: UACC-62; assay: Antiproliferative activity against human UACC-62 cells assessed as cell growth inhibition incubated for 72 hrs by MTT assay; type: functional
[27] = test system: IGROV-1; assay: Antiproliferative activity against human IGROV-1 cells assessed as cell growth inhibition incubated for 72 hrs by MTT assay; type: functional
[28] = test system: OVCAR-5; assay: Antiproliferative activity against human OVCAR-5 cells assessed as cell growth inhibition incubated for 72 hrs by MTT assay; type: functional
[29] = test system: 786-0; assay: Antiproliferative activity against human 786-0 cells assessed as cell growth inhibition incubated for 72 hrs by MTT assay; type: functional
[30] = test system: A498; assay: Antiproliferative activity against human A498 cells assessed as cell growth inhibition incubated for 72 hrs by MTT assay; type: functional
[31] = test system: RXF 393; assay: Antiproliferative activity against human RXF 393 cells assessed as cell growth inhibition incubated for 72 hrs by MTT assay; type: functional
[32] = test system: SN12C; assay: Antiproliferative activity against human SN12C cells assessed as cell growth inhibition incubated for 72 hrs by MTT assay; type: functional
[33] = test system: TK-10; assay: Antiproliferative activity against human TK-10 cells assessed as cell growth inhibition incubated for 72 hrs by MTT assay; type: functional
[34] = test system: UO-31; assay: Antiproliferative activity against human UO-31 cells assessed as cell growth inhibition incubated for 72 hrs by MTT assay; type: functional
[35] = test system: DU-145; assay: Antiproliferative activity against human DU-145 cells assessed as cell growth inhibition incubated for 72 hrs by MTT assay; type: functional
[36] = test system: MCF7; assay: Antiproliferative activity against human MCF7 cells assessed as cell growth inhibition incubated for 72 hrs by MTT assay; type: functional
[37] = test system: MDA-MB-231; assay: Antiproliferative activity against human MDA-MB-231 cells assessed as cell growth inhibition incubated for 72 hrs by MTT assay; type: functional
[38] = test system: Hs-578T; assay: Antiproliferative activity against human Hs-578T cells assessed as cell growth inhibition incubated for 72 hrs by MTT assay; type: functional
[39] = test system: BT-549; assay: Antiproliferative activity against human BT-549 cells assessed as cell growth inhibition incubated for 72 hrs by MTT assay; type: functional
[40] = test system: T47D; assay: Antiproliferative activity against human T47D cells assessed as cell growth inhibition incubated for 72 hrs by MTT assay; type: functional
[41] = test system: MDA-MB-468; assay: Antiproliferative activity against human MDA-MB-468 cells assessed as cell growth inhibition incubated for 72 hrs by MTT assay; type: functional
[42] = test system: VL51; assay: Antiproliferative activity against human VL51 cells assessed as proliferating cells at 1 uM incubated for 72 hrs by MTT assay relative to control; type: functional
[43] = Antiproliferative activity against human MINO cells assessed as proliferating cells at 1 uM incubated for 72 hrs by MTT assay relative to control; type: functional
[44] = test system: SU-DHL10; assay: Antiproliferative activity against human SU-DHL-10 cells assessed as proliferating cells at 1 uM incubated for 72 hrs by MTT assay relative to control; type: functional
[45] = test system: VL51; assay: Antiproliferative activity against human VL51 cells assessed as inhibition of cell proliferation incubated for 72 hrs by MTT assay; type: functional, cell-based; conditions: VL51, 72 h
[46] = Antiproliferative activity against human MINO cells assessed as inhibition of cell proliferation incubated for 72 hrs by MTT assay; type: functional, cell-based
[47] = test system: SU-DHL10; assay: Antiproliferative activity against human SU-DHL-10 cells assessed as inhibition of cell proliferation incubated for 72 hrs by MTT assay; type: functional, cell-based; conditions: SU-DHL10, 72 h

## COc1ccc(Cn2cc3c(c2-c2cc(OC)c(OC)c(OC)c2)CCc2c(CN4CCCC4)noc2-3)cc1
[1]
  GI50: 730 nM
[2]
  GI50: 320 nM
[3]
  GI50: 1470 nM
[4]
  GI50: 1270 nM
[5]
  GI50: 360 nM
[6]
  GI50: 1330 nM
[7]
  GI50: 2110 nM
[8]
  GI50: 2.07 µM
[9]
  GI50: 2800 nM
[10]
  GI50: 5.55 µM
[11]
  GI50: 470 nM
[12]
  GI50: 470 nM
[13]
  GI50: 400 nM
[14]
  GI50: 12.6 µM
[15]
  GI50: 540 nM
[16]
  GI50: 3150 nM
[17]
  GI50: 750 nM
[18]
  GI50: 780 nM
[19]
  GI50: 670 nM
[20]
  GI50: 540 nM
[21]
  GI50: 580 nM
[22]
  GI50: 240 nM
[23]
  GI50: 13.2 µM
[24]
  GI50: 11.5 µM
[25]
  GI50: 17 µM
[26]
  GI50: 550 nM
[27]
  GI50: 890 nM
[28]
  GI50: 3200 nM
[29]
  GI50: 1000 nM
[30]
  GI50: 780 nM
[31]
  GI50: 890 nM
[32]
  GI50: 4430 nM
[33]
  GI50: 23.4 µM
[34]
  GI50: 1160 nM
[35]
  GI50: 4000 nM
[36]
  GI50: 330 nM
[37]
  GI50: 3050 nM
[38]
  GI50: 1800 nM
[39]
  GI50: 2470 nM
[40]
  GI50: 2650 nM
[41]
  GI50: 280 nM
[42]
  Activity: 57%
[43]
  Activity: 8.7%
[44]
  Activity: 0.3%
[45]
  IC50: 150 nM
[46]
  IC50: 500 nM
[47]
  IC50: 700 nM

## COc1ccc(Cn2cc3c(c2-c2cc(OC)c(OC)c(OC)c2)CCc2c(CO)noc2-3)cc1
[1]
  GI50: 320 nM
[2]
  GI50: 210 nM
[3]
  GI50: 440 nM
[4]
  GI50: 420 nM
[5]
  GI50: 210 nM
[6]
  GI50: 420 nM
[7]
  GI50: 510 nM
[8]
  GI50: 15 µM
[9]
  GI50: 520 nM
[10]
  GI50: 0.64 µM
[11]
  GI50: 150 nM
[12]
  GI50: 270 nM
[13]
  GI50: 320 nM
[14]
  GI50: 0.27 µM
[15]
  GI50: 370 nM
[16]
  GI50: 1060 nM
[17]
  GI50: 230 nM
[18]
  GI50: 390 nM
[19]
  GI50: 180 nM
[20]
  GI50: 330 nM
[21]
  GI50: 150 nM
[22]
  GI50: 30 nM
[23]
  GI50: 0.46 µM
[24]
  GI50: 3.6 µM
[25]
  GI50: 14.7 µM
[26]
  GI50: 250 nM
[27]
  GI50: 490 nM
[28]
  GI50: 710 nM
[29]
  GI50: 360 nM
[30]
  GI50: 280 nM
[31]
  GI50: 160 nM
[32]
  GI50: 720 nM
[33]
  GI50: 17.7 µM
[34]
  GI50: 580 nM
[35]
  GI50: 390 nM
[36]
  GI50: 90 nM
[37]
  GI50: 630 nM
[38]
  GI50: 410 nM
[39]
  GI50: 490 nM
[41]
  GI50: 330 nM
[42]
  Activity: 51.3%
[43]
  Activity: 82.1%
[44]
  Activity: 62.1%
[45]
  IC50: 1600 nM
[46]
  IC50: 1400 nM
[47]
  IC50: 1800 nM
